Results: patent US20120034613A1, “Apparatus and Method for Testing Relationships Between Gene Expression and Physical Appearance of Skin” (NSE Products, Inc., priority 2010, published 2012)

System: EpidermFT™ Skin Model (EFT-400) full thickness skin cultures
Test: Affymetrix GeneChip HG U133 Plus 2.0 microarray global gene expression, agent-exposed vs untreated skin cultures
Assay type: cell-based, human
Settings: 0.5% vs untreated, 24 hr; down

## OCc1ccccc1O[C@@H]1O[C@H](CO)[C@@H](O)[C@H](O)[C@H]1O [Salicin, 2-(Hydroxymethyl)phenyl β-D-glucospyranoside]
  Fold change HAS3 (223541_at): 3.713
  Fold change HIP1R (209558_s_at): 3.322
  Fold change HMGCR (202539_s_at): 3.621
  Fold change HMGCR (202540_s_at): 3.753
  Fold change HMOX1 (203665_at): 3.193
  Fold change HOMER2 (217080_s_at): 3.789
  Fold change HOOK1 (219976_at): 3.54
  Fold change HS3ST6 (239547_at): 3.557
  Fold change HSD17B1 (205829_at): 3.15
  Fold change HYAL4 (220249_at): 3.117
  Fold change IL1F5 (222223_s_at): 3.177
  Fold change IL28RA (244261_at): 3.252
  Fold change IRX3 (229638_at): 3.118
  Fold change ITGAM (205786_s_at): 3.645
  Fold change JUB (225806_at): 3.698
  Fold change JUB (225807_at): 3.198
  Fold change JUB (1553764_a_at): 3.662
  Fold change KCTD11 (235857_at): 3.157
  Fold change KIAA0485 (214295_at): 3.094
  Fold change KIAA0513 (204546_at): 3.413
  Fold change KIAA0746 /// SERINC2 (212314_at): 3.628
  Fold change KIAA1239 (230765_at): 3.239
  Fold change KIAA1609 (65438_at): 3.527
  Fold change KIAA1609 (221843_s_at): 3.461
  Fold change KIF21A (226003_at): 3.77
  Fold change KIF21A (231875_at): 3.78
  Fold change KLF5 (209211_at): 3.563
  Fold change KLHL18 (1557165_s_at): 3.408
  Fold change KLK11 (205470_s_at): 3.318
  Fold change KLK13 (205783_at): 3.619
  Fold change KRT15 (204734_at): 3.6
  Fold change KRT34 (206969_at): 3.171
  Fold change LAD1 (203287_at): 3.072
  Fold change LOC283070 (226382_at): 3.685
  Fold change LOC653602 (229546_at): 3.058
  Fold change LOC728377 (228596_at): 3.786
  Fold change LOC100128178 (232090_at): 3.299
  Fold change LOC100128443 /// MAST4 (225613_at): 3.231
  Fold change LOC100128501 (229296_at): 3.452
  Fold change LOC100130885 (236213_at): 3.36
  Fold change LPCAT2 (227889_at): 3.256
  Fold change LYPLA1 (203007_x_at): 3.221
  Fold change MACC1 (232151_at): 3.738
  Fold change MACC1 (1566766_a_at): 3.181
  Fold change MBD1 (241813_at): 3.076
  Fold change ME1 (204058_at): 3.413
  Fold change ME1 (204059_s_at): 3.029
  Fold change MICALCL (243611_at): 3.335
  Fold change MICALL1 (221779_at): 3.602
  Fold change MKNK2 (223199_at): 3.427
  Fold change MLLT4 (224685_at): 3.09
  Fold change MPP7 (1564308_a_at): 3.034
  Fold change MPZL2 (203780_at): 3.468
  Fold change MPZL2 (230518_at): 3.326
  Fold change MSMB (207430 s_at): 3.689
  Fold change MTUS1 (212095_s_at): 3.034
  Fold change MTUS1 (212096_s_at): 3.773
  Fold change MYO5B (225301_s_at): 3.815
  Fold change NDRG2 (206453_s_at): 3.922
  Fold change NDRG2 (214279_s_at): 3.705
  Fold change NLRX1 (1553695_a_at): 3.887
  Fold change NOL3 (221566_s_at): 3.704
  Fold change NOL3 (221567_at): 3.416
  Fold change NT5C3 (223298_s_at): 3.641
  Fold change OMG (238720_at): 3.099
  Fold change P2RY2 (206277_at): 3.679
  Fold change P11 (206605_at): 3.785
  Fold change PANK1 (226649_at): 3.261
  Fold change PCDH7 (228640_at): 3.307
  Fold change PCSK6 (210553_x_at): 3.573
  Fold change PITX2 (207558_s_at): 3.504
  Fold change PLCXD1 (218951_s_at): 3.092
  Fold change PLLP (204519_s_at): 3.781
  Fold change PLXDC2 (227276_at): 3.44
  Fold change PLXNA2 (213030_s_at): 3.036
  Fold change PNPLA1 (1553364_at): 3.553
  Fold change PPID (228469_at): 3.327
  Fold change PPP1R13L (218849_s_at): 3.053
  Fold change PPP2R2C (223574_x_at): 3.091
  Fold change PSG4 (208191_x_at): 3.458
  Fold change PSPH (205048_s_at): 3.381
  Fold change PTGER3 (210375_at): 3.745
  Fold change PTPN3 (203997_at): 3.799
  Fold change PTPN3 (227944_at): 3.077
  Fold change RAB3D (225001_at): 3.306
  Fold change RAB7B (230266_at): 3.207
  Fold change RAET1E (1552777_a_at): 3.558
  Fold change RASAL1 (219752_at): 3.507
  Fold change RBM35A (219121_s_at): 3.786
  Fold change RDH13 (1559190_s_at): 3.726
  Fold change RHBDL2 (1554895_a_at): 3.193
  Fold change RHOD (209885_at): 3.12
  Fold change RHOU (223168_at): 3.283
  Fold change S1PR5 (230464_at): 3.789
  Fold change S100P (204351_at): 3.66
  Fold change SCD (200832_s_at): 3.77
  Fold change SCD /// SCDOS (223839_s_at): 3.34
  Fold change SCN4B (236359_at): 3.105
  Fold change SDC1 (201287_s_at): 3.32
  Fold change SEPT8 (209000_s_at): 3.657
  Fold change SERPINB3 (209719_x_at): 3.665
  Fold change SERPINB3 (209720_s_at): 3.147
  Fold change SERPINB7 (206421_s_at): 3.623
  Fold change SERPINB12 (1553057_at): 3.711
  Fold change SFT2D2 (214838_at): 3.904
  Fold change SGPL1 (212322_at): 3.184
  Fold change SLC4A11 (223748_at): 3.82
  Fold change SLC5A1 (242773_at): 3.714
  Fold change SLC22A3 (205421_at): 3.516
  Fold change SLC38A1 (224579_at): 3.045
  Fold change SLC38A4 (220786 s_at): 3.844
  Fold change SMPD3 (231732_at): 3.594
  Fold change SORL1 (203509_at): 3.285
  Fold change SPRR3 (232082_x_at): 3.303
